Measurements: patent US7541467B2, “Fluorescent zinc ion sensor” (Sekisui Medical Co., Ltd., priority 2004, dated 2009)

Key:
[1] = Fluorescence on irradiation with and without added zinc ions; assay type: physicochemical
[2] = NMR titration
[3] = Fluorescent responses in the presence of various metal ions
[4] = Titration with zinc ions monitored by ultraviolet and visible absorption spectra; assay type: binding
Experimental: TQEN was titrated with zinc ions, and changes of ultraviolet and visible absorption spectra were monitored.
In the same manner as in Test Example 3, solution of 6OMeTQEN (concentration of 6OMeTQEN: 34 μM) in water-containing DMF (DMF:water=1:1) was titrated with zinc ions (0 to 68 μM), and changes in absorption were monitored by measuring ultraviolet and visible absorption spectra (FIG. 8).

| SMILES | fluorescence wavelength when zinc ions were added ([1]; excitation 317 nm, DMF or DMF:water=1:1) | fluorescence without zinc ions ([1]; irradiated with light of 317 nm in DMF or DMF:water=1:1) | melting point | exchange rate between free and zinc-bound ligand [2] | fluorescence intensity in the presence of cadmium ions, relative to that in the presence of zinc ions [3] | fluorescence wavelength when zinc ions were added ([1]; excitation 340 nm, DMF:water=1:1, 34 μM, zinc ions 0 to 68 μM) | fluorescence without zinc ions ([1]; irradiated with light of 340 nm, DMF:water=1:1, 34 μM) | absorption wavelength longer than that of TQEN by ([4]; 34 μM in DMF:water=1:1) | absorption wavelength extended to ([4]; 34 μM in DMF:water=1:1, zinc ions 0 to 68 μM) |
| --- | --- | --- | --- | --- | --- | --- | --- | --- | --- |
| c1ccc2nc(CN(CCN(Cc3ccc4ccccc4n3)Cc3ccc4ccccc4n3)Cc3ccc4ccccc4n3)ccc2c1 [TQEN, N,N,N′,N′-tetrakis(2-quinolylmethyl)ethylenediamine] | 383 nm | substantially no fluorescence was emitted | 196 to 198 °C | slower than the time scale of NMR | about 60% |  |  |  |  |
| COc1ccc2nc(CN(CCN(Cc3ccc4cc(OC)ccc4n3)Cc3ccc4cc(OC)ccc4n3)Cc3ccc4cc(OC)ccc4n3)ccc2c1 [6OMeTQEN, N,N,N′,N′-tetrakis(6-methoxy-2-quinolylmethyl)-ethylenediamine] |  |  | 168 to 170 °C |  |  | 410 nm | substantially no fluorescence was emitted | about 20 nm | around 350 nm |
